Measurements taken from EP4696689A1, “SALT FORM AND CRYSTAL FORM OF CHIRAL HETEROCYCLIC COMPOUND HAVING HEDGEHOG PATHWAY ANTAGONIST ACTIVITY” (Suzhou Kintor Pharmaceuticals, Inc., priority 2023, dated 2024).

Key:
[1] = solid state stability (XRPD, HPLC, chiral purity); format: physicochemical
Procedure: The purity test, the dynamic solubility and the stability test are tested by the Agilent 1260/1100 high performance liquid chromatograph, and the analysis conditions and chiral purity test analysis conditions of the high performance liquid chromatography test are respectively as follows.
After placing the amorphous free base and fumarate crystal form F of the compound of formula (I) at 25°C/60% RH and 40°C/75% RH for 1 week, the physical and chemical stability of the sample is detected by XRPD and HPLC (at the same time the chiral purity of the sample is tested). […] Table 4-2 Solid Stability Evaluation Summary

[2] = tested on: primary extracted medulloblastoma cells; assay: antitumor efficacy against medulloblastoma, subcutaneous xenograft model; format: in vivo, CB-17/SCID mice; details: for Tumor Volume at Day 0 (mm^3): before treatment; for T/C (%) / Tumor Volume at Dosing Endpoint (mm^3) / TGI (%): 17 days; for Tumor Volume at Dosing Endpoint (mm^3): volume on Day 18; for Fold Change in Tumor Volume: Day 18 compared to Day 0; for anti-tumor efficacy compared to the high-dose GDC-0449 (10 mg/kg) group: after 17 days of treatment;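 on all read-outs here: male CB-17/SCID mice bearing subcutaneous tumors, randomized at 150-300 mm^3, tumor volume from caliper diameters as 0.5 × longest × shortest squared, measured twice weekly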
Procedure: 60 male CB-17/SCID mice (aged 6-8 weeks) were purchased from Shanghai SLAC Laboratory Animal Co., Ltd. Animals were housed in individually ventilated cages (IVCs), with five mice per cage. Housing conditions were as follows: temperature was maintained at 20-26°C; humidity was 30-70%; 12 hours of light and 12 hours of darkness.
30 mice with uniform tumor sizes (Coefficient of Variation, CV < 30%, CV = Standard Deviation / Mean) were selected from this group. These mice were selected and randomly divided into five experimental groups according to Table 6-2, with six mice in each group and one group per cage. Drug administration began the day after grouping and lasted for 17 days with a frequency of twice daily (BID). The drug was discontinued after 17 days to observe tumor changes.
During routine examinations, animals were monitored for tumor growth, activity level, food intake, water consumption, weight gain or loss, eye, fur, and any other abnormal behaviors. Animal deaths and clinical abnormalities were recorded. Tumor volume (TV) was measured twice weekly using calipers and calculated using the formula: TV = 0.5a × b^2, wherein a is the longest diameter of the tumor and b is the shortest diameter. Body weight was recorded twice weekly, concurrently with tumor volume measurements.
If the animals' weight subsequently recovered to within a 10% loss compared to baseline, whether to continue the administration was based on the animals' condition. The in vivo experimental for an individual animal or the entire group would be terminated under the following conditions. The animals will be euthanized before death or coma. • ➢ If the animals' health condition deteriorated continuously, causing persistent suffering and is unable to eat or drink. • ➢ If the animal became emaciated, with a body weight loss exceeding 20% compared to the initial administration. • ➢ If the tumor volume of an individual mouse exceeded 3000 mm^3 or the mean tumor volume of the entire group exceeded 2000 mm^3.
All data were analyzed using GraphPad Prism 5.0. P value < 0.05 was considered statistically significant.

[3] = tested on: Gli1 Gene; assay: Gli1 mRNA expression in tumor tissues (RT-qPCR), Shh signaling pathway analysis; format: in vivo, CB-17/SCID mice; details: for mRNA Expression Level of Glil Gene: tumor tissue 2 hours after last administration, GAPDH internal reference
Excerpt: Table 7-1 The Grouping and Drug Administration Plan
Primary tumor cells were extracted from Math1-Cre/Ptch1 ^C/C mice with spontaneous medulloblastoma and subcutaneously inoculated into CB-17/SCID mice to establish a xenograft model of medulloblastoma.
CB-17/SCID mice were subcutaneously injected with primary extracted medulloblastoma cells. After 3-4 weeks, a subset of mice developed tumors with volumes ranging from 150 to 300 mm^3.
From these mice, 25 tumor-bearing mice with uniform tumor sizes (with CV < 30%, CV = SD/Mean) were selected and randomly divided into 5 experimental groups (Vehicle, GDC-0449-10 mg/kg, Compound A-10 mg/kg, Compound A-3 mg/kg, Compound A-1 mg/kg) according to Table 2. Each group consisted of 5 mice per cage. Administration began on the day after grouping. The administration period was 3 days, with a frequency of BID. Tumor tissues were collected 2 hours after the last administration, and the mRNA expression level of the Glil gene in the tumor tissues was analyzed by RT-qPCR.
The tumor tissues were lysed by RNAiso Plius (TaKaRa, 108-95-2) to extractand RNA was then extracted using chloroform extraction and isopropanol precipitation methods. Subsequently, the mRNA level of the Glil gene was detected using a real-time fluorescence quantitative PCR instrument (ABI 7500), with GAPDH serving as the internal reference for quantitative analysis.
Experimental data in all tables are presented as "mean ± standard deviation" with error bars in figures representing standard error of the mean (SEM). Student's t-test was used to compare statistical differences in Glil gene mRNA expression levels in tumor tissues among treatment groups. All data were analyzed using GraphPad Prism 5.0. P-value <0.05 was considered statistically significant. ***, P<0.001; ##, P<0.01.
Glil is a target gene of the Hedgehog signaling pathway, and its mRNA expression level reflects the activation status of the hedgehog signaling pathway.

[4] = in vivo; details: rat, po, 10 mg/kg
Procedure: Solvent A: 0.5% CMC-Na +0.2% Tween80
Preparation method: 5 g of sodium carboxymethyl cellulose (CMC-Na) was accurately weighed, 2 mL of Tween 80 was added, 998 mL of purified water was added, stirred and evenly mixed on a magnetic stirrer, and stored at room temperature.
After administration, blood was taken at different time points through orbit, and the blood samples were placed in a tube containing heparin sodium (as an anticoagulant), centrifuged by a cryocentrifuge and then stored in an environment of -80°C. An appropriate amount of plasma sample (50 µL) was taken into which (200 µL) cold acetonitrile containing the internal standard was added. The plasma protein was precipitated by centrifugation for 10 minutes. Finally, 100 µL of the supernatant was added and diluted with 100 µL of pure water and then injected into an LC-MS/MS system for analysis.
LC-MS/MS analysis method: All samples were analyzed by an LC-MS/MS system of an API 3000 mass spectrometer equipped with an Agilent 1100 series of liquid phase systems (Agilent, Japan). Column: Agilent XORBAX, XDB-C8 (50×2.1mm;3.5µm). Column temperature: room temperature, flow rate: 0.4 mL/min, total running time:7min.
For the quantitative analysis of MS/MS, the API3000 mass spectrometer is operated in the positive ESI mode with multiple reaction monitoring (MRM). All compounds and internal standards were monitored with a dwell time of 200 milliseconds. Other MS/MS parameter settings are as follows: Nebulizer gas (NEB): 12 psi, Gas curtain gas (CUR): 7 psi, Collision gas (CAD): 4 psi, Ion spray voltage: 5000V, Ion source temperature:500 °C. For the transitions of the selected ions, each analyte was tested under the optimal sensitivity clustering potential (DP) and collision energy (CE). Finally, the data were collected and processed using the SCIEX Analyst 1.5.2 data processing software system.
Preparation method: 0.1 g of sodium carboxymethyl cellulose (CMC-Na) was accurately weighed, 20 ml of purified water was added, and ultrasonic stirring was performed to dissolve it to obtain 0.5% CMC-Na.

[5] = in vivo; details: mouse, in vivo, po, 10 mg/kg
Procedure: The collected plasma samples were subjected to a protein precipitation method by using an organic reagent according to the following method to extract test article in the plasma, and the extracted sample was subjected to quantitative concentration analysis through the LC-MS/MS.
Meanwhile, an accompanying standard curve and quality control samples were prepared for quantitative analysis.
The fumarate salt form F of the compound of formula (I) Group: 50 µL of plasma at each time point was taken, 400 µL of acetonitrile was added, vortex mixing and centrifugation was performed at 10000 rpm for 10 min, and a 200 µL supernatant for LC-MS/MS analysis was taken. Meanwhile, an accompanying standard curve and quality control samples were prepared for quantitative analysis.
According to the plasma drug concentration data obtained through analysis, the main pharmacokinetic parameters were calculated according to the non-atrioventricular model by using Kinetic software (Version 5.0).

## Cc1cnc(-c2cc(N3CCc4nc(N5CCC(O)CC5)ncc4[C@H]3C)ncc2Cl)c(C)c1 [Fumarate crystal form F]
[1]; 25°C/60%RH_1w
  Chiral purity (%): 98.6%
  Purity (Area%): 99.7 Area%
  Purity/Initial purity (%): 100.1%
[1]; 40°C/75%RH_1w
  Chiral purity (%): 98.6%
  Purity (Area%): 99.6 Area%
  Purity/Initial purity (%): 100.0%
[1]; Start
  Chiral purity (%): 98.6%
  Purity (Area%): 99.6 Area%
[2]; 1 mg/kg group
  Tumor Volume at Day 0 (mm^3): 220.5 ± 43.7 mm^3
[2]; 1 mg/kg i.g. BID × 17 days, day 0 after grouping
  Tumor Volume: 220.5 ± 43.7 mm3
[2]; 1 mg/kg i.g. BID × 17 days, day 3
  Tumor Volume: 244.9 ± 82.4 mm3
[2]; 1 mg/kg i.g. BID × 17 days, day 6
  Tumor Volume: 483.8 ± 252.8 mm3
[2]; 1 mg/kg i.g. BID × 17 days, day 9
  Tumor Volume: 759.7 ± 401.1 mm3
[2]; 1 mg/kg i.g. BID × 17 days, day 12
  Tumor Volume: 1234.4 ± 582.9 mm3
[2]; 1 mg/kg i.g. BID × 17 days, day 15
  Tumor Volume: 2056.6 ± 1094.9 mm3
[2]; 1 mg/kg i.g. BID × 17 days, day 18
  Tumor Volume: 2868.8 ± 1372.9 mm3
[2]; 1 mg/kg i.g. BID × 17 days, day 21, drug withdrawal observation
  Tumor Volume: 4176.0 ± 1871.1 mm3
[2]; 1 mg/kg i.g. BID
  T/C (%): 124.5%
  Tumor Volume at Dosing Endpoint (mm^3): 2868.8 ± 1372.9 mm^3
  Fold Change in Tumor Volume: 12.80 ± 4.95
[2]; 3 mg/kg group
  Tumor Volume at Day 0 (mm^3): 244.1 ± 17.1 mm^3
[2]; 3 mg/kg i.g. BID × 17 days, day 0 after grouping
  Tumor Volume: 244.1 ± 17.1 mm3
[2]; 3 mg/kg i.g. BID × 17 days, day 3
  Tumor Volume: 205.3 ± 26.0 mm3
[2]; 3 mg/kg i.g. BID × 17 days, day 6
  Tumor Volume: 147.7 ± 56.5 mm3
[2]; 3 mg/kg i.g. BID × 17 days, day 9
  Tumor Volume: 140.1 ± 62.3 mm3
[2]; 3 mg/kg i.g. BID × 17 days, day 12
  Tumor Volume: 112.7 ± 46.9 mm3
[2]; 3 mg/kg i.g. BID × 17 days, day 15
  Tumor Volume: 125.4 ± 58.9 mm3
[2]; 3 mg/kg i.g. BID × 17 days, day 18
  Tumor Volume: 150.4 ± 77.2 mm3
[2]; 3 mg/kg i.g. BID × 17 days, day 21, drug withdrawal observation
  Tumor Volume: 199.3 ± 93.7 mm3
[2]; 3 mg/kg i.g. BID × 17 days, day 23, drug withdrawal observation
  Tumor Volume: 271.2 ± 131.7 mm3
[2]; 3 mg/kg i.g. BID × 17 days, day 26, drug withdrawal observation
  Tumor Volume: 604.1 ± 328.5 mm3
[2]; 3 mg/kg i.g. BID × 17 days, day 29, drug withdrawal observation
  Tumor Volume: 887.6 ± 407.9 mm3
[2]; 3 mg/kg i.g. BID × 17 days, day 32, drug withdrawal observation
  Tumor Volume: 1209.2 ± 513.6 mm3
[2]; 3 mg/kg i.g. BID × 17 days, day 35, drug withdrawal observation
  Tumor Volume: 1645.0 ±560.6 mm3
[2]; 3 mg/kg i.g. BID × 17 days, day 38, drug withdrawal observation
  Tumor Volume: 2352.0 ± 963.1 mm3
[2]; 3 mg/kg i.g. BID
  T/C (%): 6.03%
  TGI (%): 93.97%
  Tumor Volume at Dosing Endpoint (mm^3): 150.4 ± 77.2 mm^3
  Fold Change in Tumor Volume: 0.62 ± 0.33
[2]; 10 mg/kg group
  Tumor Volume at Day 0 (mm^3): 234.5 ± 33.6 mm^3
[2]; 10 mg/kg i.g. BID × 17 days, day 0 after grouping
  Tumor Volume: 234.5 ± 33.6 mm3
[2]; 10 mg/kg i.g. BID × 17 days, day 3
  Tumor Volume: 187.9 ± 44.7 mm3
[2]; 10 mg/kg i.g. BID × 17 days, day 6
  Tumor Volume: 98.7 ± 28.9 mm3
[2]; 10 mg/kg i.g. BID × 17 days, day 9
  Tumor Volume: 47.9 ± 29.8 mm3
[2]; 10 mg/kg i.g. BID × 17 days, day 12
  Tumor Volume: 24.5 ± 14.9 mm3
[2]; 10 mg/kg i.g. BID × 17 days, day 15
  Tumor Volume: 10.9 ± 5.1 mm3
[2]; 10 mg/kg i.g. BID × 17 days, day 18
  Tumor Volume: 8.8 ± 6.1 mm3
[2]; 10 mg/kg i.g. BID × 17 days, day 21, drug withdrawal observation
  Tumor Volume: 14.7 ± 10.1 mm3
[2]; 10 mg/kg i.g. BID × 17 days, day 23, drug withdrawal observation
  Tumor Volume: 16.6 ± 9.7 mm3
[2]; 10 mg/kg i.g. BID × 17 days, day 26, drug withdrawal observation
  Tumor Volume: 18.1 ± 11.5 mm3
[2]; 10 mg/kg i.g. BID × 17 days, day 29, drug withdrawal observation
  Tumor Volume: 43.9 ± 37.3 mm3
[2]; 10 mg/kg i.g. BID × 17 days, day 32, drug withdrawal observation
  Tumor Volume: 92.2 + 101.2 mm3
[2]; 10 mg/kg i.g. BID × 17 days, day 35, drug withdrawal observation
  Tumor Volume: 214.8 + 254.9 mm3
[2]; 10 mg/kg i.g. BID × 17 days, day 38, drug withdrawal observation
  Tumor Volume: 347.4 + 445.9 mm3
[2]; 10 mg/kg i.g. BID
  T/C (%): 0.39%
  Tumor Volume at Dosing Endpoint (mm^3): 8.8 ± 6.1 mm^3
  Fold Change in Tumor Volume: 0.04 ± 0.03
[2]; 10 mg/kg i.g. BID, TGI = [1 - RTV(treatment group) / RTV(control group)] × 100%
  TGI (%): 99.61%
[2]; high-dose (10 mg/kg)
  anti-tumor efficacy compared to the high-dose GDC-0449 (10 mg/kg) group: significantly superior
[2]; low dose (1 mg/kg)
  inhibitory effect on tumor growth versus vehicle control group: did not show a significant inhibitory effect
[2]; medium and high-dose group, post-treatment observation period
  recurrent tumor volume compared with the GDC-0449 group at the same time: significantly lower
[2]; medium-dose (3 mg/kg)
  anti-tumor efficacy compared to the high-dose GDC-0449 (10 mg/kg) group: significantly superior
[3]; 1 mg/kg i.g. BID × 3 days
  mRNA Expression Level of Glil Gene: 0.609 ± 0.140
[3]; 3 mg/kg i.g. BID × 3 days
  mRNA Expression Level of Glil Gene: 0.359 ± 0.113
[3]; 10 mg/kg i.g. BID × 3 days
  mRNA Expression Level of Glil Gene: 0.045 ± 0.035
[3]; high-dose group (10 mg/kg)
  inhibition of Hedgehog signaling compared with the high-dose group of GDC-0449 (10 mg/kg): significantly stronger inhibition
[4]
  AUC(0-t) at 24 h: 14300 ng·h/mL
  Cmax: 2850 ng/mL
  bioavailability: 97.5%
[5]
  AUC(0-inf): 16700 ng·h/mL
  AUC(0-t): 7500 ng·h/mL
  Cmax: 2410 ng/mL
  MRT: 15.6 h
  Tmax: 0.25 h
  half-life: 12.4 h
